A short description of data set [1]: Caco-2 Permeability Assay. The data set is classed as in vitro ADME. To be noted: human, test compound 3 μM, 2 hours at 37° C., direction not given. As to the method:
Caco-2 Permeability Assay Protocol
Thirteen to 27 days prior to assay, Caco-2 cells were seeded onto collagen-coated polycarbonate filter membranes in 24-well transwell plates at a density of 1.45×10^5 cells/cm^2, approximately 4.8×10^4 cells per well. The cells were grown in a culture medium consisting of DMEM supplemented with 10% fetal bovine serum, 10 mM HEPES, 1% nonessential amino acids, 2 mM L-glutamine, 100 U/mL penicillin-G, and 100 μg/mL streptomycin. The culture medium was replaced every 3 days and the cells were maintained at 37° C. in a 95% relative humidity and 5% CO2 atmosphere. The cells were evaluated for tight junction formation just prior to assay. The test compound was solubilized to 10 mM in 100% DMSO and diluted to 3 μM in assay buffer. Permeability studies were initiated by adding 200 μL assay buffer plus/minus compound to the apical transwell compartment and 600 μL assay buffer plus/minus compound to the basolateral compartment of the 24-well transwell low-binding cluster plate. For apical-to-basolateral (A to B) permeability (absorptive direction), buffer containing compound was placed in the apical compartment (donorwells), while buffer alone was placed in the corresponding basolateral compartments (receiverwells). For basolateral-to-apical (B to A) permeability (secretive direction), buffer containing compound was placed in the basolateral compartment (donor wells), while buffer alone was placed in the corresponding apical compartments (receiver wells). Transwells were then incubated for 2 hours at 37° C. in a 95% relative humidity and 5% CO2 atmosphere with gentle agitation. Following incubation, 100 μL was removed from each apical and basolateral compartment and transferred to 96-well low binding plates that had been previously loaded with 100 μL/well of acetonitrile containing 250 nM propranolol, 250 nM diclofenac, and 500 nM tolbutamide as internal standards. The samples were subsequently analyzed by LC-MS/MS to determine concentrations of compound.

A further data set addresses IRAK4 (Homo sapiens (Human), UniProt Q9NWZ3). Put plainly: IRAK4 Inhibition Assay. As to conditions: ATP 500 μM; IRAK4 0.6 nM; 60 min room temperature. The data set is classed as biochemical. The procedure: The assays were performed in U-bottom 384-well plates. The final assay volume was 30 μL prepared from 15 μL additions of enzyme and substrates (fluoresceinated peptide and ATP) and test compounds in assay buffer (20 mM HEPES pH 7.2, 10 mM MgCl2, 0.015% Brij 35 and 4 mM DTT). The reaction was initiated by the combination of IRAK4 with substrates and test compounds. The reaction mixture was incubated at room temperature for 60 min. and terminated by adding 45 μL of 35 mM EDTA to each sample. The reaction mixture was analyzed on the Caliper LABCHIP® 3000 (Caliper, Hopkinton, Mass.) by electrophoretic separation of the fluorescent substrate and phosphorylated product. Inhibition data were calculated by comparison to no enzyme control reactions for 100% inhibition and vehicle-only reactions for 0% inhibition. The final concentrations of reagents in the assays are ATP, 500 μM; FL-IPTSPITTTYFFFKKK peptide 1.5 μM; IRAK4, 0.6 nM; and DMSO, 1.6%.

A further data set deals with Human whole blood. Put plainly: IRAK4 Whole Blood Assay (TLR2 agonist lipoteichoic acid induced IL-6). The data set is classed as cell-based. As to conditions: 10 μg/mL lipoteichoic acid (TLR2 agonist), 5 hours, IL-6 levels. The procedure: Human whole blood containing the anti-coagulant ACD-A was plated in 384-well plate (25 μL/well) and incubated with compounds for 60 minutes at 37° C. in a 5% CO2 incubator. The blood was stimulated with a TLR2 agonist, 10 μg/mL final concentration of lipoteichoic acid (Invivogen, San Diego, Calif.) in 25 μL RPMI (Gibco) for 5 hours in a 5% CO2 incubator. At the end of the incubation, plates were centrifuged at 2300 rpm for 5 minutes. Supernatants were harvested and analyzed for IL-6 levels by Flow Cytometry beads assay (BD Biosciences, San Jose, Calif.).

pEC50, pIC50: −log10 of the molar value.

IRAK4, sequence (Q9NWZ3 whole entry): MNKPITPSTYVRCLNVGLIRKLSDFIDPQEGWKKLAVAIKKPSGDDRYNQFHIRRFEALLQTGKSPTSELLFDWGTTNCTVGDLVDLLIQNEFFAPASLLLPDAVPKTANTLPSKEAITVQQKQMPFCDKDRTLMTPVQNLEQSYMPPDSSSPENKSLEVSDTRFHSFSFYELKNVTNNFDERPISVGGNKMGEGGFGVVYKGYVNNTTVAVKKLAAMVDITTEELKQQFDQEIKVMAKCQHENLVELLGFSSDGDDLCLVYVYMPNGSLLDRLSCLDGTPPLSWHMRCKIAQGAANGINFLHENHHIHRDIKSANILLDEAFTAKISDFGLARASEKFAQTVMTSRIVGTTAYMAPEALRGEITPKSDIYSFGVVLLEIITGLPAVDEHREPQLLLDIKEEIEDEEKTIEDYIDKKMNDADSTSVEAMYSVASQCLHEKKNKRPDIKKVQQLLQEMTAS

Take `CC(C)Nc1cc(-c2cnc3cc(C#N)cnn23)ncc1-c1cnn(CCC(C)(C)O)c1` [Example 27, 3-(5-(1-(3-hydroxy-3-methylbutyl)-1H-pyrazol-4-yl)-4-(isopropylamino)pyridin-2-yl) imidazo[1,2-b]pyridazine-7-carbonitrile]: the Papp (commonly a coefficient for how fast a substance crosses the barrier) at 2 h, 3 μM in data set [1] is 13.6 ×10⁻⁶ cm/s. The pIC50 (as a rule, −log10 of the IC50, conventionally taken in molar units) on IRAK4 is 8.52. Besides, the pEC50 (commonly the EC50 on a negative log10 scale, so that one unit is a factor of ten) in the data set with Human whole blood is 6.21.
Consider `CC(C)(O)CCc1cn(-c2cnc(-c3cnn4cc(C#N)cnc34)cc2N[C@H]2CC[C@H](F)C2)nn1` [Example 25, 3-(4-(((1S,3 S)-3-fluorocyclopentyl)amino)-5-(4-(3-hydroxy-3-methylbutyl)-1H-1,2,3-triazol-1-yl)pyridin-2-yl)pyrazolo[1,5-a]pyrimidine-6-carbonitrile], for which, in data set [1], the Papp at 2 h, 3 μM is 13.4 ×10⁻⁶ cm/s. Besides, the pIC50 on IRAK4 is 8.30. In the data set on Human whole blood, this molecule gave a pEC50 of 6.60.
Consider `CCCc1cn(-c2cnc(-c3cnn4cc(Cl)cnc34)cc2NC(C)C)nn1` [Example 11, 2-(6-chloropyrazolo[1,5-a]pyrimidin-3-yl)-N-isopropyl-5-(4-propyl-1H-1,2,3-triazol-1-yl)pyridin-4-amine], for which, in data set [1], the Papp at 2 h, 3 μM worked out at 17.9 ×10⁻⁶ cm/s. Further, at IRAK4, the pIC50 is 8.10.
Molecule `CC(C)Nc1cc(-c2cnc3cc(C#N)cnn23)ncc1-n1cc(CCC(C)(C)O)nn1` [Example 22, 3-(5-(4-(3-hydroxy-3-methylbutyl)-1H-1,2,3-triazol-1-yl)-4-(isopropylamino)pyridin-2-yl)imidazo[1,2-b]pyridazine-7-carbonitrile] gave a Papp at 2 h, 3 μM in data set [1] of 29.5 ×10⁻⁶ cm/s. For the same molecule, the pIC50 at IRAK4 was 8.40. In the data set with Human whole blood, this molecule showed a pEC50 of 6.11.
`CCCn1cc(-c2cnc(-c3cnc4cc(C#N)cnn34)cc2NC2CC2)nn1` [Example 18, 3-(4-(cyclopropylamino)-5-(1-propyl-1H-1,2,3-triazol-4-yl)pyridin-2-yl)imidazo[1,2-b]pyridazine-7-carbonitrile] registered a Papp at 2 h, 3 μM in data set [1] of 22.5 ×10⁻⁶ cm/s. Besides, the pIC50 on IRAK4 is 8.70. The molecule further had a pEC50 in the data set with Human whole blood of 6.74.
In turn, `CCCc1cn(-c2cnc(-c3cnc4cc(C#N)cnn34)cc2NC(C)C)nn1` [Example 15, 3-(4-(isopropylamino)-5-(4-propyl-1H-1,2,3-triazol-1-yl)pyridin-2-yl)imidazo[1,2-b]pyridazine-7-carbonitrile] displayed a Papp at 2 h, 3 μM in data set [1] of 22.5 ×10⁻⁶ cm/s. Further, the pIC50 on IRAK4 was 8.22. The pEC50 in the data set with Human whole blood was 5.75.

For the origin of these results see patent US10202390B2, “Heteroaryl substituted aminopyridine compounds” (BRISTOL-MYERS SQUIBB COMPANY, priority 2015, dated 2019).
